According to patent publication US8575193B2, “N-substituted tetrahydroisoquinoline/isoindoline hydroxamic acid compounds” (4SC AG, priority 2008, dated 2013):
Counter-ions that a name gives are not always drawn.

What was measured:
[1] = target: T1, rHDAC3 (Homo sapiens, UniProt O15379); assay: rHDAC3 enzymatic assay (recombinant FLAG-HDAC3); assay type: biochemical; conditions: FLAG-HDAC3 from insect cells; 6 μM Ac-NH-GGK(Ac)-AMC, 2 h at 30° C.; read-out: rHDAC3 [pIC50] (converted)
T1 construct: FLAG; made in house; host or cells: baculovirus-infected Sf21 insect cells
T1 sequence (O15379 whole entry): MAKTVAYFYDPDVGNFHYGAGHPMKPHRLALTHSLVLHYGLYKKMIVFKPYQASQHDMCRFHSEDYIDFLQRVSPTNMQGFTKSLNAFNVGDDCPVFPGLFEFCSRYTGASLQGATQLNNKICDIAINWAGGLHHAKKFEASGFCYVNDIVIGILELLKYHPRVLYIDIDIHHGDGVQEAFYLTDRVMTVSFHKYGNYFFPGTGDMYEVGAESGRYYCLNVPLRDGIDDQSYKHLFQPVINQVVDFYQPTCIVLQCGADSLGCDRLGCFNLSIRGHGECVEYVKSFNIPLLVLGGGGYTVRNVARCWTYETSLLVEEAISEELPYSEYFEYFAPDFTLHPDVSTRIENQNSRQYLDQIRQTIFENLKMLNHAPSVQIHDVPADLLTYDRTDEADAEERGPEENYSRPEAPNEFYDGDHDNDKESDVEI
T1 sequence (Q9Y618 whole entry partner): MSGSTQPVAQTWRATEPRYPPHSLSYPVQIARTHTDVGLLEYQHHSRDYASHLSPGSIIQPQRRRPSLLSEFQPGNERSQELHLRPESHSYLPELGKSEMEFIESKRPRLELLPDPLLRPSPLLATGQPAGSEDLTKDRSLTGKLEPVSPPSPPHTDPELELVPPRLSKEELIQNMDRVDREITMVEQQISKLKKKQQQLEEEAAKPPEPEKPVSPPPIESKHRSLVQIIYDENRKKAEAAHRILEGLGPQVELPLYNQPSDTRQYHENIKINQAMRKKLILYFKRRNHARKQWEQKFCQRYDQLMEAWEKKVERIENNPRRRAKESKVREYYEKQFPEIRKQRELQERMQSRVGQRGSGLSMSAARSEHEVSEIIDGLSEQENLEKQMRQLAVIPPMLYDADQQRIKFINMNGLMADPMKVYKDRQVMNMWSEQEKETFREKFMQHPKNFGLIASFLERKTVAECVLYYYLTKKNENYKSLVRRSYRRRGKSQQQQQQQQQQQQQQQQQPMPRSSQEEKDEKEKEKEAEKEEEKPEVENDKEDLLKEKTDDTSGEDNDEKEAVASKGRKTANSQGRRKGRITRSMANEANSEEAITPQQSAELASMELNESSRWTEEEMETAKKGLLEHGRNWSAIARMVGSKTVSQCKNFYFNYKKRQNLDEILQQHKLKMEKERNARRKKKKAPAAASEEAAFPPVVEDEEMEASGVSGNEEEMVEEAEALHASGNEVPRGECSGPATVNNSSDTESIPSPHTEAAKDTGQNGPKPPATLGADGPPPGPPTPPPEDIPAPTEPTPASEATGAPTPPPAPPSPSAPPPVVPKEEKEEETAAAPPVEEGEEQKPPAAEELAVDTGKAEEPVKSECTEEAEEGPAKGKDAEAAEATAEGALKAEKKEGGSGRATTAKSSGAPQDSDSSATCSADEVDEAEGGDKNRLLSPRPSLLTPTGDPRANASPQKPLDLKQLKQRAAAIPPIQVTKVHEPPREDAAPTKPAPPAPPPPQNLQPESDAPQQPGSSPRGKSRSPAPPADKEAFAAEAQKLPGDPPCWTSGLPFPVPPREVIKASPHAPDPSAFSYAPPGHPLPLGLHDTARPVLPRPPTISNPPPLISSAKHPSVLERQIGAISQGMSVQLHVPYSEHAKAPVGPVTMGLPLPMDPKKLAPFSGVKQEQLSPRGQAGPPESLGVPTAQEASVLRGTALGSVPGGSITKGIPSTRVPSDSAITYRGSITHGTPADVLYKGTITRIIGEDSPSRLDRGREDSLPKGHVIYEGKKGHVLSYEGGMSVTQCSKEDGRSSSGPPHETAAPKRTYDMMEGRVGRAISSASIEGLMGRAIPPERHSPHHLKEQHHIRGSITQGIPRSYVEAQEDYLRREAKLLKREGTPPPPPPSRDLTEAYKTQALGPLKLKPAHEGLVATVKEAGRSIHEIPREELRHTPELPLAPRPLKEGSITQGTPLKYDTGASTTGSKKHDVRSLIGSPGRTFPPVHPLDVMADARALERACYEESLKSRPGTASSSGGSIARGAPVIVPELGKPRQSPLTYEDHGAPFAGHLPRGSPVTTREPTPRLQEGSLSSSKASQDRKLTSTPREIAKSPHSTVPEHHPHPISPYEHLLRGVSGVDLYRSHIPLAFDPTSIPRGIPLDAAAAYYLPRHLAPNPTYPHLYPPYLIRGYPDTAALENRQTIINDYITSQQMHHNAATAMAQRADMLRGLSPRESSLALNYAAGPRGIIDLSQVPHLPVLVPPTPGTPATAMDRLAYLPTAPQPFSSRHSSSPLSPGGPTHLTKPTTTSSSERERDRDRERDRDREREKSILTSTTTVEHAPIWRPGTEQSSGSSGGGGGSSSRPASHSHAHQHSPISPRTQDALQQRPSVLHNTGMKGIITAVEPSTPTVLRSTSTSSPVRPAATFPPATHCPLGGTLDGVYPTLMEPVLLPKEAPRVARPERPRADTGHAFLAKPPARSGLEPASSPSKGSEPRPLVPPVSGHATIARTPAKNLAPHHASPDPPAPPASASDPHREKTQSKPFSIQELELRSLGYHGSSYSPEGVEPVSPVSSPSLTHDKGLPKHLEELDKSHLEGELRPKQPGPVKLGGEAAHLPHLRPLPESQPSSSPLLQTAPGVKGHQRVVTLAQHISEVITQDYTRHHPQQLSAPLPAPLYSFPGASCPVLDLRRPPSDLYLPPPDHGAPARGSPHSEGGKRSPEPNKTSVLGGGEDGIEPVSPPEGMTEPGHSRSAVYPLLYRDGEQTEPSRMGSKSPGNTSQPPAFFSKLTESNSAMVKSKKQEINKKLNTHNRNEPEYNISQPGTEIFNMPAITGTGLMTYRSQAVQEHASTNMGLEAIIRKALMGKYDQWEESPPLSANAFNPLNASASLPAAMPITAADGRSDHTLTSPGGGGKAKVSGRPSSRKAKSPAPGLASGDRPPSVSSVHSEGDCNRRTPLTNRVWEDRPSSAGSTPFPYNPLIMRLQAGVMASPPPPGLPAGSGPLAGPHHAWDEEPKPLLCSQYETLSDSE
Text: (§1) Human HDAC1 and HDAC6 fused with the FLAG epitope are stably expressed in HEK293 cells while human HDAC3 and HDAC8 fused with the FLAG epitope are overexpressed in baculo-virus infected insect (Sf21) cells. To ensure stability of FLAG-HDAC3 the SMRT protein is co-expressed in the corresponding insect cells. […] FLAG-HDAC3 and FLAG-HDAC8 are also purified by M2-agarose affinity chromatography after mass cultivation of the insect cells and cell lysis.
(§2) The HDAC enzyme activity assay is done as described by Wegener et al. (Chem. & Biol. 10, 61-68, 2003). Briefly 40 μl of a 1:100 dilution (=0.4 μl) nuclear HeLa extract (mixture of class I and II HDACs), 29 μl enzyme buffer (15 mM Tris HCl pH 8.1, 0.25 mM EDTA, 250 mM NaCl, 10% v:v glycerol) and 1 μl test compound are added to a well of a 96 well microtiter plate and reaction started by addition of 3 μl substrate (Ac-NH-GGK(Ac)-AMC; final concentration 25 μM and final volume […]). […] After incubation at room temperature for further 40 min, fluorescence is measured using a Wallac Victor 1420 multilabel counter (Ex 355 nm, Em 460 nm) for quantification of AMC (7-amino-4-methylcoumarin) generated by trypsine cleavage of the deacetylated peptide. […] The corresponding pIC50 values of the compounds for HDAC inhibitory activity are determined from the concentration-effect curves by means of non-linear regression (Graphpad Prism software).
(§3) The HDAC1, HDAC3 and HDAC6 enzymatic assays are done with slight modifications with recombinant FLAG-HDAC1 and FLAG-HDAC6 proteins isolated from HEK293 cell lysates or recombinant FLAG-HDAC3 isolated from insect cells, respectively. The HDAC8 enzymatic assay using recombinant FLAG-HDAC8 isolated from insect cells is done with a different substrate. About 4.5 ng/well FLAG-HDAC1 and 3.1 ng/well FLAG-HDAC6 (dependent on batches and specific activity) are incubated with 6 μM or 10 μM Ac-NH-GGK(Ac)-AMC substrate, respectively, for 3 h at 30° C. About 1.7 ng/well FLAG-HDAC3 is incubated with 6 μM Ac-NH-GGK(Ac)-AMC substrate for 2 h at 30° C., while approximately 130 ng/well FLAG-HDAC8 is incubated with 50 μM Ac-RHK(Ac)K(Ac)-AMC substrate for 3 h at 30° C. Termination of the reaction and all further steps are done as described for HeLa cell nuclear extracts as a source for HDAC enzymatic activity. The corresponding pIC50 values of the compounds for HDAC1, HDAC3, HDAC6 and HDAC8 inhibitory activity are determined from the concentration-effect curves by means of non-linear regression.

[2] = target: T2, rHDAC1 (Homo sapiens, UniProt Q13547); assay: rHDAC1 enzymatic assay (recombinant FLAG-HDAC1); assay type: biochemical; conditions: FLAG-HDAC1 from HEK293; 6 μM Ac-NH-GGK(Ac)-AMC, 3 h at 30° C.; read-out: rHDAC1 [pIC50] (converted)
T2 construct: FLAG; made in house
T2 sequence (Q13547 whole entry): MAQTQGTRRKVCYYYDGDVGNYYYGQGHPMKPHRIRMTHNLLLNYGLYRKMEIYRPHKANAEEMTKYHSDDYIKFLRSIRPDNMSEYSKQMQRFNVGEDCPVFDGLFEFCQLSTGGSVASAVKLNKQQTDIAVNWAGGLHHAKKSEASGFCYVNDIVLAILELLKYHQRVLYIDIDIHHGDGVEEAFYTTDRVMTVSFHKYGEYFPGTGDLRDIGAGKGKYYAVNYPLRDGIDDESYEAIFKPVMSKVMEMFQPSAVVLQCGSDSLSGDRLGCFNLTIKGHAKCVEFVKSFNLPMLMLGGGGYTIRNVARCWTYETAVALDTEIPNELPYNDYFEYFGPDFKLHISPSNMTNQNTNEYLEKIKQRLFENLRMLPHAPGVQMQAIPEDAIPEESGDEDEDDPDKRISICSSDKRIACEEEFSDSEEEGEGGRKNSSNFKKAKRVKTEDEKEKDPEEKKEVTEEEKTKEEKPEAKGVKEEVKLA
Text: as §1, §2, §3

[3] = target: T3, rHDAC8 (Homo sapiens, UniProt Q9BY41); assay: rHDAC8 enzymatic assay (recombinant FLAG-HDAC8); assay type: biochemical; conditions: FLAG-HDAC8 from insect cells; 50 μM Ac-RHK(Ac)K(Ac)-AMC, 3 h at 30° C.; read-out: rHDAC8 [pIC50] (converted)
T3 construct: FLAG; made in house; host or cells: baculovirus-infected Sf21 insect cells
T3 sequence (Q9BY41 1-377): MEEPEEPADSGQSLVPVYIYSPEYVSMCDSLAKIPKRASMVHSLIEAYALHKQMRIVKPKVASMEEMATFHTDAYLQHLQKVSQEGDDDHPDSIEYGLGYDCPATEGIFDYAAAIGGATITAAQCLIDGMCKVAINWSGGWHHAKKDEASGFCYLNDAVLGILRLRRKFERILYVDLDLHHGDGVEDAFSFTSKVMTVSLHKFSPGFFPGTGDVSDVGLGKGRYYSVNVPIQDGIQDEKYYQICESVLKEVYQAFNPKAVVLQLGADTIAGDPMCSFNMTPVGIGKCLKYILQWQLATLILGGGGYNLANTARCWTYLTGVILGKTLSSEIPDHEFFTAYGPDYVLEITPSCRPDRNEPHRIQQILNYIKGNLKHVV
Text: as §1, §2, §3

[4] = Cellular cytotoxicity assay (Alamar Blue/Resazurin), HeLa; assay type: cell-based; conditions: human, HeLa cells, 72 hours incubation, Resazurin, read-out: HeLa Cytotoxicity [pIC50] (converted)
Description: (§4) The anti-proliferative activity of the compounds as described herein, is evaluated with various solid and hematological cancer cell lines using the Alamar Blue (Resazurin) cell viability assay (O'Brien et al, Eur J Biochem 267, 5421-5426, 2000). Resazurin is reduced to the fluorescent resorufin by cellular dehydrogenase activity, correlating with viable, proliferating cells. Test compounds are dissolved as 20 mM solutions in dimethylsulfoxide (DMSO) and subsequently diluted in semi-logarithmic steps. The cancer cell lines are seeded into 96 well flat bottom plates at respective cell densities in a volume of 200 μl per well to allow continuous proliferation during the experiment. 24 hours after seeding 1 μl each of the compound dilutions is added into each well of the 96 well plate. Wells containing untreated control cells are filled with 200 μl DMEM medium containing 0.5% v:v DMSO. The cells are then incubated with the substances for 72 hours at 37° C. in a humidified atmosphere containing 5% carbon dioxide. To determine the viability of the cells, 20 μl of a Resazurin solution (Sigma; 90 mg/l) are added. After 4 hours incubation at 37° C. the fluorescence is measured at an extinction of 544 nm and an emission of 590 nm. For the calculation of the cell viability the emission value from untreated cells is set as 100% viability and the emission rates of treated cells are set in relation to the values of untreated cells. Viabilities are expressed as % values. The corresponding pIC50 values of the compounds for cytotoxic activity are determined from the concentration-effect curves by means of non-linear regression.

[5] = Cellular cytotoxicity assay (Alamar Blue/Resazurin), RKOp21; assay type: cell-based; conditions: human, RKOp21 cells; RKOp21, 72 hours incubation, Resazurin; read-out: RKOp21 Cytotoxicity [pIC50] (converted)
Description: as §4

Compound | IC50 [1] [µM] | IC50 [2] [µM] | melting point [°C] | IC50 [3] [µM] | IC50 at 72 h [4] [µM] | IC50 at 72 h [5] [µM]
COc1ccc2[nH]c(C(=O)N3CCc4cc(C(=O)NO)ccc4C3)cc2c1 [Example 15, N-Hydroxy-2-[(5-methoxy-1H-indol-2-yl)carbonyl]-1,2,3,4-tetrahydroisoquinoline-6-carboxamide] | 1 to 10 | 0.1 to 10 | 156 | 1 to 10 | 1 to 100 | 
O=C(NO)c1ccc2c(c1)CCN(C(=O)Cc1cccnc1)C2 [Example 8, N-Hydroxy-2-(pyridin-3-ylacetyl)-1,2,3,4-tetrahydroisoquinoline-6-carboxamide hydrochloride] | 10 to 100 | 10 to 100 |  | 1 to 10 | > 100 | > 100
CNC(=O)N1CCc2cc(C(=O)NO)ccc2C1 [Example 4, N6-Hydroxy-N2-methyl-3,4-dihydroisoquinoline-2,6(1H)-dicarboxamide] | 10 to 100 | 0.1 to 10 |  | 1 to 10 | > 100 | > 100
O=C(NO)c1ccc2c(c1)CCN(C(=O)C1CC1)C2 [Example 16, N-Hydroxy-2-(cyclopropylcarbonyl)-1,2,3,4-tetrahydroisoquinoline-6-carboxamide] | 10 to 100 | 0.1 to 10 | 90 | 1 to 10 | > 100 | 
